The series addresses T1, Bombyx mori EcR (VP16 fusion, switch construct CVBE) with 6XEcRE LacZ reporter (Bombyx mori, UniProt P49881).
T1 construct: expressed in transfected cells; host or cells: Human 293 kidney (HEK-293) cells, retrovirally infected, clone Z3
T1 sequence (P49881 86-606 limits assumed): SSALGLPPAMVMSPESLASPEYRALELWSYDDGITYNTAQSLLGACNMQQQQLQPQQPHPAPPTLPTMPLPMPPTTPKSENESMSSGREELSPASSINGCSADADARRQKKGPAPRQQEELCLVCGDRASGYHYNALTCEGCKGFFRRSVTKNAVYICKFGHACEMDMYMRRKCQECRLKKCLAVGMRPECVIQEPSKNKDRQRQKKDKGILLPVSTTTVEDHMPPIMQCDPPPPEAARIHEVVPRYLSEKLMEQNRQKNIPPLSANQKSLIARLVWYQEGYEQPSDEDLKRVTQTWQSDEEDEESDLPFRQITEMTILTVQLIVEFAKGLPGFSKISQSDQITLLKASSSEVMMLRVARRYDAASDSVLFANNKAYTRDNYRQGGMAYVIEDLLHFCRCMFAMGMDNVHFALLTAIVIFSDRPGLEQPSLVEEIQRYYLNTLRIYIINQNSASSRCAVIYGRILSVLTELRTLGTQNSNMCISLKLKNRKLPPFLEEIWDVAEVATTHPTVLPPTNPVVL
T1 sequence (P19793 1-462 partner): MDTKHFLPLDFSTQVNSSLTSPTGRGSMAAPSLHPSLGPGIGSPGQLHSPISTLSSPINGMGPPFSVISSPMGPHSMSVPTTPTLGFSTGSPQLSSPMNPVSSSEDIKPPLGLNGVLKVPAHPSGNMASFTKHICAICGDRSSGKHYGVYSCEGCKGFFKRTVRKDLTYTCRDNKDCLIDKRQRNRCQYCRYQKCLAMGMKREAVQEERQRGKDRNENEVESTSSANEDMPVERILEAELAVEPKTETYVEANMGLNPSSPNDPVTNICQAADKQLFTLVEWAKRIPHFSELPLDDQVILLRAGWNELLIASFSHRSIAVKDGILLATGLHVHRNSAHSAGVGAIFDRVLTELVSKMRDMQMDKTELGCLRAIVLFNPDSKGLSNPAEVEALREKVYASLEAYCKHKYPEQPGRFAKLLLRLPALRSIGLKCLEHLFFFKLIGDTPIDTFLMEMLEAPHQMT
Briefly: Z3 assay: β-galactosidase (LacZ) reporter gene fold induction in stably transformed human 293 kidney cells (clone Z3). The class given is cell-based. In short, it runs like this: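 β-Galactosidase read 48 h after dosing by bioluminescent assay; ligand added at 33 μM with DMSO held at 0.03%. The cells are stable 293 clone Z3, expressing a CMV-driven VP16 fusion of Bombyx mori EcR residues 26-546 plus six EcRE copies upstream of lacZ.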
Background: Reporter assays use an easily measured gene product as a stand-in for the process of interest.

[1] abbreviates: single dose 33 μM; ligand treated / DMSO treated cells.
Where [2] appears, read: average; dose response, three-parameter logistic model; read-out: Z3 LC50.
Setting [3] is: maximum fold induction at any concentration relative to that of GS-E ligand.
The mark [4] stands for this setting: read-out: Fold Induction Average, Z3 Assay (33 μM).
[5] abbreviates: read-out: Z3 LC50; average; dose response, three-parameter logistic model.
The mark [6] stands for this setting: single dose 33 μM; ligand treated / DMSO treated cells; read-out: Fold Induction Average, Z3 Assay (33 μM).

Where two headings read alike, the source gives them in different places.

For `CCOC(=O)C(=O)N1CCCC(NC(=O)c2cccc(OC)c2C)(C(=O)c2cc(C)cc(C)c2)C1` (racemic) [Example 154], the “Fold Induction Average, Z3 Assay (33 μM)” value under setting [1] is 7.
As to `COC(=O)CN1CCCC(NC(=O)c2cccc(OC)c2C)(C(=O)c2cc(C)cc(C)c2)C1` (racemic) [Example 156], the CC50 under setting [2] is roughly 20 µM. Besides, under setting [3], the “Z3 Rel Max FI” value is 0.03. Further, the “Fold Induction Average, Z3 Assay (33 μM)” value under setting [1] worked out at 78.
For `COc1cccc(C(=O)C2(NC(=O)c3cccc(OC)c3C)CCCCC2)c1` [Example 4], the “Z3 Rel Max FI” value under setting [3] is recorded as 0.54. Besides, the fold induction at 33 µM under setting [4] was found to be 233. Under setting [5], the CC50 came to 1.19 µM.
`COc1cccc(C(=O)NC2(C(=O)c3cccc(C)c3)CCCCC2)c1C` [Example 7]: under setting [3], the “Z3 Rel Max FI” value worked out at 0.78. Under setting [4], the fold induction at 33 µM stood at 811. Further, the CC50 under setting [5] is 3.51 µM.
On to `COc1cccc(C(=O)NC2(C(=O)c3cc(C)cc(C)c3)CCCC2)c1C` [Example 10], for which, under setting [2], the CC50 came out at 1.87 µM. Also, the “Z3 Rel Max FI” value under setting [3] came out at 0.85. Under setting [6], the fold induction at 33 µM stood at 464.
For `COc1cccc(C(=O)NC2(C(=O)c3cc(C)cc(C)c3)CCCCC2)c1C` [Example 11] the same measures were 1.41 µM, 0.99 and 722.
Regarding `COc1cccc(C(=O)NC(C)(Cc2ccccc2)C(=O)c2cc(C)cc(C)c2)c1C` (stereo not shown) [Example 12], the “Z3 Rel Max FI” value under setting [3] is 0.09. Further, the fold induction at 33 µM under setting [4] stood at 76. Moreover, the CC50 under setting [5] was found to be 10 µM.
For `COc1cccc(C(=O)NC2(C(=O)c3cc(C)cc(C)c3)CC2)c1C` [Example 13] the same measures were 0.22, 293 and 20.4 µM.
With `COc1cccc(C(=O)NC2(C(=O)c3cc(C)cc(C)c3)CCC2)c1C` [Example 14], the CC50 under setting [2] amounted to 8.52 µM. Further, the “Z3 Rel Max FI” value under setting [3] stood at 0.69. Further, the fold induction at 33 µM under setting [6] is 945.
Regarding `COc1cccc(C(=O)NC2(C(=O)c3ccc(C)cc3)CCCCC2)c1C` [Example 15], the “Z3 Rel Max FI” value under setting [3] is recorded as 0.70. The fold induction at 33 µM under setting [4] turned out to be 921. The CC50 under setting [5] came out at 3.01 µM.
For `COc1cccc(C(=O)NC2(C(=O)c3ccc(F)c(C)c3)CCCC2)c1C` [Example 17] the same measures were 0.43, 393 and 3.47 µM.
For `COc1cccc(C(=O)NC2(C(=O)c3ccc(F)c(C)c3)CCCCC2)c1C` [Example 18] the same measures were 0.67, 657 and 3.41 µM.
As to `COc1cccc(C(=O)NC(C)(C(=O)c2cc(C)cc(C)c2)C(C)C)c1C` (stereo not shown) [Example 20], the “Z3 Rel Max FI” value under setting [3] came to 0.75. In addition, under setting [4], the fold induction at 33 µM worked out at 573. Besides, the CC50 under setting [5] amounted to 2.06 µM.
For `CCc1c(OC)cccc1C(=O)NC1(C(=O)c2ccccc2)CCCC1` [Example 21] the same measures were 0.33, 305 and roughly 15 µM.
For `CCc1c(C(=O)NC2(C(=O)c3ccccc3)CCCC2)ccc2c1OCCO2` [Example 22] the same measures were 0.48, 602 and roughly 10 µM.
With `COc1cccc(C(=O)NC2(C(=O)c3cccc(C)c3)CCOCC2)c1C` [Example 25], the “Z3 Rel Max FI” value under setting [3] is recorded as 0.07. Also, the fold induction at 33 µM under setting [4] amounted to 19. For the same compound, under setting [5], the CC50 is roughly 20 µM.
Taken in the same sequence, the figures for `COc1cccc(C(=O)NC2(C(=O)c3cccc(C)c3)CCSCC2)c1C` [Example 26] were 0.60, 751 and roughly 15 µM.
For `COc1cccc(C(=O)NC2(C(=O)c3cc(C)cc(C)c3)CCOCC2)c1C` [Example 27] the same measures were 0.81, 562 and 10 µM.
Take `COc1cccc(C(=O)NC2(C(=O)c3cc(C)cc(C)c3)CCSCC2)c1C` [Example 28]: the CC50 under setting [2] was 1.6 µM. Moreover, the “Z3 Rel Max FI” value under setting [3] is 0.98. Further, under setting [6], the fold induction at 33 µM is 1220.
As for `COc1cccc(C(=O)NC2(C(=O)c3cc(C)cc(C)c3)CCC3(CC2)OCCO3)c1C` [Example 29], the “Z3 Rel Max FI” value under setting [3] is listed as 0.06. Moreover, the fold induction at 33 µM under setting [4] stood at 116. Besides, under setting [5], the CC50 is roughly 15 µM.
For `COc1ccccc1C(=O)C(C)(NC(=O)c1cccc(OC)c1C)C(C)C` (stereo not shown) [Example 30] the same measures were 0.20, 485 and roughly 15 µM.
Take `COc1cccc(C(=O)NC(C)(C(=O)c2cccc(C)c2)C(C)C)c1C` (stereo not shown) [Example 31]: the CC50 under setting [2] worked out at 8.61 µM. Also, the “Z3 Rel Max FI” value under setting [3] came to 0.47. For the same compound, the fold induction at 33 µM under setting [6] amounted to 312.
In the case of `COc1cccc(C(=O)C(C)(NC(=O)c2cccc(OC)c2C)C(C)C)c1` (stereo not shown) [Example 32], the “Z3 Rel Max FI” value under setting [3] turned out to be 0.12. Besides, the fold induction at 33 µM under setting [4] was 33. Also, the CC50 under setting [5] worked out at 25.5 µM.
Turning to `COc1cccc(C(=O)NC(C)(C(=O)c2ccc(C)cc2)C(C)C)c1C` (stereo not shown) [Example 33], the CC50 under setting [2] is roughly 20 µM. In addition, the “Z3 Rel Max FI” value under setting [3] came out at 0.05. The fold induction at 33 µM under setting [6] is 31.
With `COc1cccc(C(=O)NC(C)(C(=O)c2ccccc2)C(C)C)c1C` (stereo not shown) [Example 34], under setting [3], the “Z3 Rel Max FI” value came out at 0.04. Besides, under setting [4], the fold induction at 33 µM amounted to 66. In addition, the CC50 under setting [5] is greater than 33 µM.
Taken in the same sequence, the figures for `CCC(CC)(NC(=O)c1cccc(OC)c1C)C(=O)c1ccccc1OC` [Example 37] were 0.29, 327 and 6.19 µM.
Regarding `CCC(CC)(NC(=O)c1cccc(OC)c1C)C(=O)c1ccc(F)cc1` [Example 38], the CC50 under setting [2] came out at 13.7 µM. In addition, under setting [3], the “Z3 Rel Max FI” value was determined as 0.04. Besides, the fold induction at 33 µM under setting [6] was 51.
Consider `COc1ccccc1C(=O)C1(NC(=O)c2cccc(OC)c2C)CCCC1` [Example 40], for which, under setting [3], the “Z3 Rel Max FI” value is recorded as 0.70. In addition, the fold induction at 33 µM under setting [4] came out at 951. In addition, the CC50 under setting [5] was determined as 5.16 µM.
Taken in the same sequence, the figures for `COc1cccc(C(=O)NC2(C(=O)c3ccc(F)cc3)CCCC2)c1C` [Example 42] were 0.14, 153 and roughly 15 µM.
For `COc1cccc(C(=O)NC2(C(=O)c3ccccc3C)CCCCC2)c1C` [Example 44] the same measures were 0.23, 94 and 16.8 µM.
As to `COc1ccccc1C(=O)C1(NC(=O)c2cccc(OC)c2C)CCCCC1` [Example 45], the “Z3 Rel Max FI” value under setting [3] is reported as 0.84. Moreover, the fold induction at 33 µM under setting [4] is 665. For the same compound, the CC50 under setting [5] was 0.98 µM.
For `COc1ccc(C(=O)C2(NC(=O)c3cccc(OC)c3C)CCCCC2)cc1` [Example 46] the same measures were 0.03, 15 and greater than 33 µM.
As for `CCC(CC)(NC(=O)c1cccc(OC)c1C)C(=O)c1cccc(C)c1` [Example 48], the CC50 under setting [2] was determined as 6.61 µM. Also, the “Z3 Rel Max FI” value under setting [3] amounted to 0.25. Further, the fold induction at 33 µM under setting [6] was 356.
`CCC(CC)(NC(=O)c1cccc(OC)c1C)C(=O)c1cccc(OC)c1` [Example 49]: the “Z3 Rel Max FI” value under setting [3] was 0.01. In addition, the fold induction at 33 µM under setting [4] was 182. For the same compound, the CC50 under setting [5] is greater than 33 µM.
Taken in the same sequence, the figures for `CCC(CC)(NC(=O)c1cccc(OC)c1C)C(=O)c1ccc(F)c(C)c1` [Example 50] were 0.07, 178 and 10.4 µM.
As to `CCC(CC)(NC(=O)c1cccc(OC)c1C)C(=O)c1cc(C)cc(C)c1` [Example 51], the CC50 under setting [2] is 4.53 µM. Besides, under setting [3], the “Z3 Rel Max FI” value stood at 0.61. Moreover, the fold induction at 33 µM under setting [6] amounted to 817.
Regarding `COc1cccc(C(=O)NC(C)(CC(C)C)C(=O)c2cccc(C)c2)c1C` (stereo not shown) [Example 52], the “Z3 Rel Max FI” value under setting [3] came to 0.24. Besides, the fold induction at 33 µM under setting [4] came to 239. Also, under setting [5], the CC50 was 6.09 µM.

The record behind these values is patent publication US8129355B2, “Ketone ligands for modulating the expression of exogenous genes via an ecdysone receptor complex” (priority 2002, dated 2012).
